Test results: patent US20070293446A1, “Compositions comprising C-13 alkoxyether macrolide compounds and phenylpyrazole compounds” (priority 1996, published 2007)

Format: physicochemical
Description: The solvent will be used in proportion with the concentration of the compound I and its solubility in this solvent. […] It will be sought to have the lowest possible volume. The vehicle makes up the difference to 100%.

For `N#Cc1nn(-c2c(Cl)cc(C(F)(F)F)cc2Cl)c(N)c1[S+]([O-])C(F)(F)F` (stereo not shown) [fipronil, 1-[2,6—Cl2-4—CF3 phenyl]-3—CN-4-[SO-CF3]-5—NH2 pyrazole], the Solubility was 4.3 % m/V.
